From patent publication US8691757B2 (Bristol-Myers Squibb Company, priority 2011, dated 2014)

How the values were obtained:
[1] = test system: HCV genotype 1a (H77 strain) replicon in HUH-7 cells; assay: HCV replicon luciferase reporter assay, genotype 1a; type: cell-based; conditions: Hepatitis C virus, 72 h, HCV genotype 1a replicon, 3 days incubation, Renilla luciferase, numeric values
Summary of the method: (§1)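 Stable HUH-7 replicon lines (1b Con1 with S1179I; 1a H77 with P1496L and S2204I) carrying Renilla luciferase were incubated 3 days at 37 °C with compound in 4% FCS, 0.5% DMSO. Luminescence was read after 2 h with 7.5 μM EnduRen, EC50 from four-parameter logistic fit; CC50 came from multiplexed Cell Titer-Blue (8 h).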

[2] = test system: HCV genotype 1b (Con1) replicon in HUH-7 cells; assay: HCV replicon luciferase reporter assay, genotype 1b; type: cell-based; conditions: Hepatitis C virus, 72 h, HCV genotype 1b replicon, 3 days incubation, Renilla luciferase, numeric values
Summary of the method: as §1

COc1cnc(O[C@@H]2C[C@H]3C(=O)N[C@]4(C(=O)NS(=O)(=O)C5(C)CC5)C[C@H]4/C=C\[C@H](C)CCC[C@@H](C)[C@H](NC(=O)OC(C)(C)C(F)(F)F)C(=O)N3C2)c2ccccc12 [Compound 35, 1,1,1-trifluoro-2-methylpropan-2-yl (2R,6S,7R,11R,13aS,14aR,16aS,Z)-2-(4-methoxyisoquinolin-1-yloxy)-7,11-dimethyl-14a-(1-methylcyclopropylsulfonylcarbamoyl)-5,16-dioxo-1,2,3,5,6,7,8,9,10,11,13a,14,14a,15,16,16a-hexadecahydrocyclopropa[e]pyrrolo[1,2-a][1,4]diazacyclopentadecin-6-ylcarbamate]
EC50 [1]: 1.96 nM
EC50 [2]: 0.51 nM
